Where two headings read alike, the source gives them in different places.
Tests used:
[1] = system: UACC-62; assay: NCI60 antiproliferative screen, melanoma UACC-62; assay type: cell-based, human; conditions: UACC-62, 48 h, sulforhodamine B, read-out: Cytotoxicity (GI50) melanoma UACC-62
Protocol: (§1) All of the indenoisoquinolines were tested for antiproliferative activity in the National Cancer Institute's 60 cell line screen (NCI60). The cells were incubated with the tested compounds at 100, 10, 1, 0.1, and 0.01 μM concentrations for 48 h before treatment with sulforhodamine B dye. Optical densities were recorded, and their ratios relative to that of the control were plotted as percentage growth against the log 10 of the tested compound concentrations. The concentration that corresponds to 50% growth inhibition (GI50) is calculated by interpolation between the points located above and below the 50% percentage growth. The mean-graph midpoint (MGM) is an estimated average of the GI50 values derived from the NCI collection of 60 human cancer cell lines, where during the MGM calculation, anticancer agents with GI50 values that are outside the testing range of 0.01-100 μM are arbitrarily assigned the values of 0.01 and 100 μM, respectively. […] Also, the GI50 values of many of the substances vs. individual human cancer cell lines are below the lowest concentration used (0.01 μM) in the standard NCI testing protocol. […] For example, the MGM cytotoxicity values of 9, 15-17, and 19 are all very close to each other, but the Top1 inhibitory activities range from +++(+) to 0.

[2] = system: OVCAR-3; assay: NCI60 antiproliferative screen, ovarian OVCAR-3; assay type: cell-based, human; conditions: OVCAR-3, 48 h, sulforhodamine B, read-out: Cytotoxicity (GI50) Ovarian OVCAR-3
Protocol: as §1

[3] = system: all human cancer cell lines successfully tested (NCI60); assay: NCI60 mean graph midpoint for growth inhibition; assay type: cell-based; conditions: for mean GI50 across NCI60 cell lines (MGM): all human cancer cell lines successfully tested, ± standard error, read-out: MGM (mean graph midpoint for growth inhibition)
Protocol: as §1

[4] = system: HCT-116; assay: NCI60 antiproliferative screen, colon HCT-116; assay type: cell-based, human; conditions: HCT-116, 48 h, sulforhodamine B, read-out: Cytotoxicity (GI50) Colon HCT-116
Protocol: as §1

[5] = system: SF-539; assay: NCI60 antiproliferative screen, CNS SF-539; assay type: cell-based, human; conditions: SF-539, 48 h, sulforhodamine B, read-out: Cytotoxicity (GI50) CNS SF-539
Protocol: as §1

[6] = system: HOP-62; assay: NCI60 antiproliferative screen, lung HOP-62; assay type: cell-based, human; conditions: HOP-62, 48 h, sulforhodamine B, read-out: Cytotoxicity (GI50) lung HOP-62
Protocol: as §1

[7] = system: SN12C; assay: NCI60 antiproliferative screen, renal SN12C; assay type: cell-based, human; conditions: 48 h, sulforhodamine B, read-out: Cytotoxicity (GI50) renal SN12C
Protocol: as §1

[8] = system: DU-145; assay: NCI60 antiproliferative screen, prostate DU-145; assay type: cell-based, human; conditions: DU-145, 48 h, sulforhodamine B, read-out: Cytotoxicity (GI50) prostate DU-145
Protocol: as §1

[9] = target: T1, Human recombinant Top1 (Homo sapiens, UniProt P11387); assay: Top1-mediated DNA cleavage assay; assay type: biochemical; parameters: key to Top1 inhibitory activity (level): 0, no detectable activity; +, weak activity; ++, similar activity to compound 4; +++, greater activity than 4; ++++, equipotent with 1; ++(+) would be between ++ and +++; key to Top 1 Cleavage: 0, no inhibitory activity; +, between 20 and 50% activities; ++, between 50 and 75% activity; +++, between 75 and 95% activity; ++++, equipotent; conditions: for Top 1 Cleavage: graded relative to 1 μM camptothecin; for Top1 inhibitory activity (level): scored relative to compounds 1 and 4
T1 construct: made in house
T1 sequence (P11387 1-765): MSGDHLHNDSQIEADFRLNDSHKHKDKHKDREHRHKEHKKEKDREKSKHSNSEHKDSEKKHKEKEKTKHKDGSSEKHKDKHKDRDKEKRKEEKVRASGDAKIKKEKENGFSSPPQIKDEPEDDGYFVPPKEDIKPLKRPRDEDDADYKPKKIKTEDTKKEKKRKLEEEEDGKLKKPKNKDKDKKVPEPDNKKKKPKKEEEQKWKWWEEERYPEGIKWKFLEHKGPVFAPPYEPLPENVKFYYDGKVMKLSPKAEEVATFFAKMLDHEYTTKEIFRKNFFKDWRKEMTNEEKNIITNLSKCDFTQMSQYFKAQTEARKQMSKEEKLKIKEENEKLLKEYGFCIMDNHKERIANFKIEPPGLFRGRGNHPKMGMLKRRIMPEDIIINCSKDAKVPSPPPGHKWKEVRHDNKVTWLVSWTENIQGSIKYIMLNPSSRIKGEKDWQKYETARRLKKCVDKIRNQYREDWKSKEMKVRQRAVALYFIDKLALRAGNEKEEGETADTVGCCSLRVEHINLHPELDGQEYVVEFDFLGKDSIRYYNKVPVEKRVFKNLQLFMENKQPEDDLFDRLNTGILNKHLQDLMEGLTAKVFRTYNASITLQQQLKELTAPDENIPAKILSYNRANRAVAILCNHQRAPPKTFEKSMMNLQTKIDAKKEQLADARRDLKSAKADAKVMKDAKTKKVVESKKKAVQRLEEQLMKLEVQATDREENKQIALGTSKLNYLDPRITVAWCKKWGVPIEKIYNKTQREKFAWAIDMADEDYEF
Protocol: All of the new indenoisoquinoline derivatives were tested in Top1-mediated DNA cleavage assays. For this purpose, a ^32P 3′-end labeled 117-bp DNA fragment was incubated with Top1 at four concentrations of a tested compound. The DNA fragments were separated on 20% PAGE denaturing gels. The Top1 inhibitory activities were assigned on the basis of the visual inspection of the number and intensities of the gel bands corresponding to Top1-mediated DNA cleavage fragments and scored relative to the Top1 inhibitory activity of compounds 1 and 4. Results are expressed in semiquantitative fashion: 0, no detectable activity; +, weak activity; ++, similar activity to compound 4; +++, greater activity than 4; ++++, equipotent with 1. Ambiguous scores (e.g., between two values) are designated with parentheses (e.g., ++(+) would be between ++ and +++). […] After conversion of the hydroxyl to a dimethylcarbamate, the observed Top1 inhibitory activity increased from ++(+) for compound 8 to +++ for compound 10. Introduction of an acetyl group at the 0-2 position yielded compound 11, which was also a Top1 poison with activity at the ++ level. Subsequently, several hydrophobic substituents were attached to the 0-2 position.
Topoisomerase I-Mediated DNA Cleavage Reactions.
Human recombinant Top1 was purified from baculovirus as previously described (Morrell, A., et al., J. Med. Chem. 2007, 50, 2040-2048). DNA cleavage reactions were prepared as previously reported with the exception of the DNA substrate (Strumberg, D., et al., J. Med. Chem. 1999, 42, 446-457). Briefly, a 117-bp DNA oligonucleotide (Integrated DNA Technologies) encompassing the previously identified Top1 cleavage sites in the 161-bp fragment from pBluescript SK(−) phagemid DNA was employed. This 117-bp oligonucleotide contains a single 5′-cytosine overhang, which was 3′-end-labeled by fill-in reaction with [α-^32P]dGTP in React 2 buffer (50 mM Tris-HCl, pH 8.0, […], 50 mM NaCl) with 0.5 unit of DNA polymerase I (Klenow fragment, New England BioLabs). Unincorporated [^32P]dGTP was removed using mini Quick Spin DNA columns (Roche, Indianapolis, Ind.), and the eluate containing the 3′-end-labeled DNA substrate was collected. Approximately 2 nM radiolabeled DNA substrate was incubated with recombinant Top1 in 20 μL of reaction buffer [10 mM Tris-HCl (pH 7.5), 50 mM KCl, 5 mM MgCl2, 0.1 mM EDTA, and 15 μg/mL BSA] at 25° C. for 20 min in the presence of various concentrations of compounds. The reactions were terminated by adding SDS (0.5% final concentration) followed by the addition of two volumes of loading dye (80% formamide, 10 mM sodium hydroxide, 1 mM sodium EDTA, 0.1% xylene cyanol, and 0.1% bromophenol blue). Aliquots of each reaction mixture were subjected to 20% denaturing PAGE. Gels were dried and visualized by using a phosphoimager and ImageQuant software (Molecular Dynamics). For simplicity, cleavage sites were numbered as previously described in the 161-bp fragment.

[10] = system: MCF-7; assay: NCI60 antiproliferative screen, breast MCF-7; assay type: cell-based, human; conditions: MCF-7, 48 h, sulforhodamine B, read-out: Cytotoxicity (GI50) breast MCF-7
Protocol: as §1

Compound	Top 1 Cleavage [9]	GI50 ([1]; Homo sapiens) [nM]	melting point	GI50 ([2]; Homo sapiens) [nM]	mean GI50 across NCI60 cell lines (MGM) [3] [nM]	GI50 ([4]; Homo sapiens) [nM]	GI50 ([5]; Homo sapiens) [nM]	GI50 ([6]; Homo sapiens) [nM]	GI50 ([7]; Homo sapiens) [nM]	GI50 ([8]; Homo sapiens) [nM]	GI50 ([10]; Homo sapiens, MCF7) [nM]	GI50 [1] [nM]	GI50 [2] [nM]	GI50 [4] [nM]	GI50 [5] [nM]	GI50 [6] [nM]	GI50 [7] [nM]	GI50 [8] [nM]	GI50 [10] [nM]	Top1 inhibitory activity (level) [9]	other results
COc1cc2c3c(n(CCCN4CCOCC4)c(=O)c2cc1OC(=O)c1cccnc1)-c1cc2c(cc1C3=O)OCO2 [Compound 19, 2-Methoxy-6-(3-morpholinopropyl)-5,12-dioxo-6,12-dihydro-5H-[1,3]dioxolo[4′,5′:5,6]indeno[1,2-c]isoquinolin-3-yl Nicotinate]	+ (+, between 20 and 50% activities)	< 10	274 to 276 °C (dec.)	15	35	< 10	< 10	< 10	< 10	< 10	< 10										
COc1cc2c3c(n(CCCN4CCOCC4)c(=O)c2cc1OC(=O)N(C)C)-c1cc2c(cc1C3=O)OCO2 [Compound 15, 2-Methoxy-6-(3-morpholinopropyl)-5,12-dioxo-6,12-dihydro-5H-[1,3]dioxolo[4′,5′:5,6]indeno[1,2-c]isoquinolin-3-yl Dimethylcarbamate]		17	290 to 292 °C	105	70 ± 28	26	21	32	25	32	< 10										
COc1cc2c(=O)n(CCCN3CCOCC3)c3c(c2cc1OC(=O)N(C)C)C(=O)c1cc2c(cc1-3)OCO2 [Compound 10, 3-Methoxy-6-(3-morpholinopropyl)-5,12-dioxo-6,12-dihydro-5H-[1,3]dioxolo[4′,5′:5,6]indeno[1,2-c]isoquinolin-2-yl Dimethylcarbamate]	+++ (+++, between 75 and 95% activity)	4470	268 to 270 °C (dec.)	12000	3460 ± 999	6070	1860	1700	2400	1550	22									+++	GI50's against various cell lines (range in words) ([3]; NCI60): micromolar range; Top1 inhibitory activity (in words) [9]: slight improvement in Top1 inhibitory activity

Second part, led by results:

Top 1 Cleavage [9]	Compound	GI50 ([1]; Homo sapiens) [nM]	melting point	GI50 ([2]; Homo sapiens) [nM]	mean GI50 across NCI60 cell lines (MGM) [3] [nM]	GI50 ([4]; Homo sapiens) [nM]	GI50 ([5]; Homo sapiens) [nM]	GI50 ([6]; Homo sapiens) [nM]	GI50 ([7]; Homo sapiens) [nM]	GI50 ([8]; Homo sapiens) [nM]	GI50 ([10]; Homo sapiens, MCF7) [nM]	GI50 [1] [nM]	GI50 [2] [nM]	GI50 [4] [nM]	GI50 [5] [nM]	GI50 [6] [nM]	GI50 [7] [nM]	GI50 [8] [nM]	GI50 [10] [nM]	Top1 inhibitory activity (level) [9]	other results
0	COc1cc2c3c(n(CCCN4CCOCC4)c(=O)c2cc1OC(C)=O)-c1cc2c(cc1C3=O)OCO2 [Compound 16, 2-Methoxy-6-(3-morpholinopropyl)-5,12-dioxo-6,12-dihydro-5H-[1,3]dioxolo[4′,5′:5,6]indeno[1,2-c]isoquinolin-3-yl Acetate]				95 ± 45							< 10	269	< 10	< 10	< 10	< 10	< 10	< 10		
+ (+, between 20 and 50% activities)	COC(=O)CCC(=O)Oc1cc2c3c(n(CCCN4CCOCC4)c(=O)c2cc1OC)-c1cc2c(cc1C3=O)OCO2 [Compound 12, 3-Methoxy-6-(3-morpholinopropyl)-5,12-dioxo-6,12-dihydro-5H-[1,3]dioxolo[4′,5′:5,6]indeno[1,2-c]isoquinolin-2-yl Methyl Succinate]				49 ± 8							< 10	66	14	< 10	< 10	< 10	< 10	< 10	+	cytotoxicity relative to parent compound (in words) ([3]; NCI60): greater than the parent 8 by a factor of almost one order of magnitude

From patent US20190218226A1, “PRODRUGS OF ANTICANCER AGENTS INDOTECAN AND INDIMITECAN” (Purdue Research Foundation, priority 2016, published 2019)
